Results from US20230340101A1, “METHODS FOR TREATING OR PREVENTING ALLERGIC ASTHMA BY ADMINISTERING AN IL-33 ANTAGONIST AND/OR AN IL-4R ANTAGONIST” (SANOFI BIOTECHNOLOGY, priority 2019, published 2023).
Entries after “also recorded” stand apart in the source; their conditions may differ.

Columns and labels:
[1] = test system: HDM-driven lung inflammation; experiment: Chronic house dust mite (HDM) model of lung inflammation; format: in vivo; conditions: FIG. 5; for pro-inflammatory cytokines and chemokines (lung panel hIL-4, IL-5, IL-1b, TNFα, IFNg, GROa, MCP-1): chronic HDM model; for inflammation in chronic HDM model of lung inflammation (lung eosinophils, lung neutrophils): with and without anti-IL-33 treatment
Source text: Data is presented showing levels of lung eosinophils and lung neutrophils in the HDM model with and without anti-IL-33 treatment. A heat map of a lung cytokine gene panel is presented showing levels of hIL-4, IL-5, IL-1b, TNFα, IFNg, GROa, and MCP-1. Alveolar SMA testing data is presented as well.
Treatment with REGN3 500 suppressed pro-inflammatory cytokines and chemokines. […] Other data presented includes a heat map of lung of cytokine panel showing levels of hIL-4, IL-5, IL-1b, TNFα, IFNg, GROa, and MCP-1. Alveolar SMA testing was also performed.

[2] = test system: BAC-induced inflammatory gene expression signatures in sputum; experiment: Bronchial allergen challenge (BAC) with HDM in patients with mild allergic asthma: gene expression signatures (mRNA) in induced sputum; format: in vivo, human; conditions: for eosinophil gene signature scores: FIG. 14, post bronchial allergen challenge, across treatment arms; for allergen-induced eosinophilic signature and broader type 2 inflammatory signature, including CCL26, CCL17, and SIGLEC8: monotherapy, REGN3500 IV 10 mg/kg single dose, dupilumab SC 600 mg day 1, 300 mg day 15, sputum after BAC
Method: Bronchial allergen challenge involves patient inhalation of allergen that results in a biphasic airway response, which is characterized by an early (30 minutes to 2 hours post-allergen challenge) and a late (approximately 3 to 8 hours post-allergen challenge) decline in forced expiratory volume over 1 second (FEV1).
Enrolled patients undergo BAC during the screening period, and at 4 and 8 weeks after administration of the first doses of study drug(s). The effects of the study drugs on BAC-induced lung inflammation are assessed via measurements of sputum molecular signatures (mRNAs and proteins). The sputum molecular signatures are assessed before BAC (baseline) and after BAC (post-BAC) at screening and at weeks 4 and 8 after treatment initiation (FIG. 1). The BAC-induced difference in the sputum signatures before and after BAC are evaluated at screening (screening change) and at weeks 4 and 8 post-treatment (week 4 change and week 8 change) will be observed. Since both REGN3500 and dupilumab display long half-lives, BAC change is evaluated at both week 4 and week 8 in the current study, to monitor the durability of the potential impact of study drug treatment on airway inflammation. The effect of study drug treatment on induced sputum gene signatures is evaluated by the difference between the BAC-induced screening change and the BAC-induced week 4 change (screening to week 4 change) and by the difference between the BAC-induced screening change and the BAC-induced week 8 change (screening to week 8 change).
Part 1 of this study is a randomized, double-blind, placebo-controlled, double-dummy parallel group study in mild persistent allergic asthmatic patients to assess the effect of REGN3500, dupilumab, REGN3500 plus dupilumab combination, or placebo on lung inflammation (as measured by sputum cytokine mRNAs) and measurements of the late phase inflammatory airway response to a BAC using HDM. Patients are randomized to one of the following treatment groups: REGN3500 (IV single dose); dupilumab (SC 2 doses, Q2W); combination REGN3500 (IV single dose) plus dupilumab (SC 2 doses, Q2W), and placebo (IV single dose and SC 2 doses, Q2W).
Because the treatment groups in this study include a first clinical dosing of REGN3500 plus dupilumab combination, Part 1 is performed in 2 phases to address any potential safety issues. The first 8 patients are randomized 1:1:1:1 to receive study drug. On day 1: patients in the REGN3500 group receive REGN3500 IV 10 mg/kg, followed by dupilumab-matching placebo SC, patients in the dupilumab group receive REGN3500-matching placebo IV followed by a loading dose of dupilumab SC 600 mg (2 injections of 300 mg), patients in the REGN3500 plus dupilumab combination will receive REGN3500 10 mg/kg IV, followed by dupilumab SC 600 mg (2 injections of 300 mg), and patients in the placebo group will receive REGN3500-matching placebo IV, followed by 2 injections of dupilumab-matching placebo SC.
On day 15 (week 2), patients assigned to the dupilumab group or the REGN3500 plus dupilumab combination group receive dupilumab SC 300 mg and all other patients receive dupilumab-matching placebo SC.
All enrolled patients return to the clinic on day 24± 2 days and on day 52 ± 2 days to provide a baseline induced sputum sample. If an adequate sputum sample cannot be obtained, patients may return 72 hours later for a second attempt to produce baseline sputum. Pre-BAC sputum collection must occur at least 72 hours prior to the BAC. Seventy-two hours after the baseline induced sputum sample is collected, on day 29 ± 2 days and on day 57 ± 2 days, respectively, patients return to the clinic, and measurements of FEV1, and FeNO are performed prior to undergoing BAC with HDM. Sputum induction is performed 8 hours and 24 hours after inhaled BAC at both the days 29 ± 2 (week 4) and 57 ± 2 days (week 8) visits. […]

[3] = test system: blood eosinophils, neutrophils, circulating type 2 inflammatory mediators; experiment: BAC study: blood eosinophils, neutrophils and circulating type 2 inflammatory mediators; format: in vivo, human
Method: Circulating Biomarkers: circulating biomarker samples are collected at time points according to Table 1 and Table 2. Biomarker measurements are performed in serum and plasma samples to determine effects on biomarkers of inflammatory diseases pathobiology or relevant physiological and pathogenic processes. The biomarkers studied are ones believed to be relevant to the pathophysiology of diseases, target engagement, mechanism of action of REGN3500 (and/or combination therapy) and possible toxicities. Biomarkers studied in the blood may include but need not be limited to, IL-33, soluble ST2, calcitonin, and MMP12.

With “REGN3500: human anti-IL-33 antibody; HCVR/LCVR SEQ ID NOs: 2 and 10, heavy/light chain SEQ ID NOs: 18 and 20” the “pro-inflammatory cytokines and chemokines (lung panel hIL-4, IL-5, IL-1b, TNFα, IFNg, GROa, MCP-1)” value ([1]; listed as REGN3 500) was “suppressed”, the “pro-inflammatory cytokines and chemokines (lung panel hIL-4, IL-5, IL-1b, TNFα, IFNg, GROa, MCP-1)” value ([1]; listed as anti-IL-33) was “suppresses” and the “inflammation in chronic HDM model of lung inflammation (lung eosinophils, lung neutrophils)” value [1] was “reduced inflammation”. For the same substance, the “inflammation in chronic HDM model of lung inflammation (lung eosinophils, lung neutrophils)” value ([1]; listed as anti-IL-33) was “reduces inflammation”, the “type 2 inflammatory cytokine and chemokine genes induced by BAC (IL-5, IL-13, Eot-3 (CCL26), TARC (CCL17), CCL1, FCER2, SIGLEC8)” value ([2]; FIG. 9, genes induced at 8 or 24 hours after allergen challenge, sputum) was “suppressed” and the “eosinophil signature genes in sputum (ADARB1, ASB2, CLC, HDC, IL1RL1, PTPN7, SIGLEC8, SYNE1, VSTM1)” value ([2]; FIG. 11) was “suppressed; also recorded: suppression”. For the same substance, the neutrophil signature genes ([2]; FIG. 11, sputum) was “No anti-IL-33 (REGN3500) treatment-mediated effects were noted; also recorded: did not have an effect”, the “type 2 inflammatory signature genes in sputum (IL-4, IL-13, CCL26, CCL13, CCL17, CCL11, POSTN, IL-5, IL-9)” value ([2]; FIG. 12) was “suppressed; also recorded: suppression” and the “eosinophil gene signature scores” value [2] was “able to reduce”. For the same substance, the “decrease of type 2 signature scores” value ([2]; FIG. 15, compared with the fluticasone treatment arm) was “lower decrease”, the “allergic asthma signature genes (BC042385 ... RHOH)” value ([2]; FIG. 16, at 8 and/or 24 hours post BAC) was “affected” and the “top allergic asthma signature genes induced by BAC at 24 hours (ASAP1-IT1 ... CCL17, CCL13, CCL26, SIGLEC8, IL13, IL5, PTGDS, RD3)” value ([2]; FIG. 17, screening vs treatment) was “suppressed”. The “allergen-induced eosinophilic signature and broader type 2 inflammatory signature, including CCL26, CCL17, and SIGLEC8” value [2] was “significantly inhibited”, the neutrophils ([3]; in vivo) was “No anti-IL-33 mediated reduction” and the “other circulating type 2 inflammatory mediators” value ([3]; in vivo) was “no anti-IL-33 mediated reduction”. The blood eosinophils ([3]; pharmacodynamic effect) was “reduction in blood eosinophils was a consistent pharmacodynamic effect”.
In the case of “dupilumab: human anti-IL-4R antibody; HCVR/LCVR SEQ ID NOs: 27 and 28, heavy/light chain SEQ ID NOs: 29 and 30 [reference compound]”, the “eosinophil gene signature scores” value [2] is reported as “able to reduce”, the “genes suppressed by REGN3500 (many of them)” value ([2]; albeit with different dynamics) is reported as “also suppressed” and the “allergen-induced eosinophilic signature and broader type 2 inflammatory signature, including CCL26, CCL17, and SIGLEC8” value [2] is reported as “significantly inhibited”.
